Reference: patent publication US10173999B2, “Cyclic amine derivative and pharmaceutical use thereof” (Toray Industries, Inc., priority 2015, dated 2019)
Entries after “also recorded” stand apart in the source; their conditions may differ. Where a name gives a salt, the structure may show the parent alone.

Experiments:
[1] = tested on: Cr1: CD (SD) rats; test: Evaluation of safety in rat, two-week oral administration test; type: in vivo; details: for findings in examination items: in vivo, po
Method: As a test compound, the compound of Example 11 or Comparative Example 2 was used. The compound of Example 11 or Comparative Example 2 was administered orally to Cr1: CD (SD) rats (7 weeks old, female and male; from Charles River Laboratories, Inc.), for 2 weeks. Clinical observation, body weight measurement, food intake measurement, ophthalmologic examination (the compound of Example 11, alone), hematological examination, blood chemistry examination, urinalysis, bone marrow examination, pathological anatomical examination, organ weight measurement, histopathological examination and immunotoxicity test were carried out. In addition, toxicokinetics (TK) measurement was carried out on Day 1 and Day 14 after administration. It was confirmed that each test compound was exposed. The administration dose of a test compound was specified as 0, 250, 500, 1000 mg/kg/day and administration volume was specified as 10 mL/kg. As an administration solvent, phosphate-buffered saline was used for the compound of Example 11 and distilled water was used for the compound of Comparative Example 2.

[2] = Pharmacokinetics (PK) test in cynomolgus monkeys; type: in vivo, cynomolgus monkey; details: male, plasma, cynomolgus monkey
Method: Cynomolgus monkeys (4 to 6 years old, male) were raised under the conditions of voluntary intake of solid food (Oriental Yeast Co., Ltd) and tap water and fasted from the evening of the day before initiation of administration and subjected to an experiment. Note that blood was sampled at 4 hours after administration (on and after 16:00), and thereafter feeding was restarted.
Dosing solution for intravenous administration was injected through the saphenous vein by use of a syringe needle (attached to a syringe barrel). The oral administration into the stomach was compulsively carried out by inserting a catheter into the nasal cavity.
The blood sampled was centrifuged at 4° C. and 1800×g for 15 minutes to obtain the plasma. The plasma thus obtained was stored at about −80° C. until use in preparation of analysis samples. The plasma obtained from a cynomolgus monkey to which a test compound was administrated, is referred to as a plasma sample; whereas the plasma obtained from a cynomolgus monkey to which a test compound was not administered, is referred to as the blank plasma.
(§1) The resulting solution was vortexed and cooled at 4° C. for 10 minutes. A sample for a calibration curve was prepared by adding a standard solution for a calibration curve to the blank plasma and subjecting the resulting mixture to the same treatment. After cooling, each of the samples was spun at 4° C. and 2000 rpm for 10 minutes by a centrifuge (Hitachi Koki Co., Ltd.). The resulting supernatant was used as a sample for LC/MS/MS analysis.
as §1, with “diluted 10 fold with 70 vol % acetonitrile containing 0.1 vol % formic acid and subjected” for “used”, “analysis. The LC/MS/MS analysis conditions were as follows:” for “analysis.”
The test-compound concentrations in the plasma at each sampling time point in the case of intravenous administration or oral administration were calculated and PK analysis was carried out for individual monkeys. PK parameters were calculated by using WinNonlin (Pharsight), in accordance with an analysis independent of a model (intravenous administration: Bolus IV Administration, oral administration: Extravascular Administration; Weight=1/y in both administrations). Furthermore, bioavailability (BA) was calculated based on the following Expression (3) by dividing AUC0-∞iv (time 0 to ∞) at the time of the intravenous administration and AUC0-∞po (time 0 to ∞) at the time of the oral administration by respective dose values to obtained as normalized values. Bioavailability (BA)=(AUC0-∞,po/dose)/(AUC0-∞,iv/dose) (3)

[3] = tested on: Canine aortic smooth muscle cells; test: Inducibility of cytoplasmic vacuolation in canine aortic smooth muscle cells; type: cell-based; design: key: Present: The term “present” in the tables means that cytoplasmic vacuolation was observed; Absent: the term “absent” means that cytoplasmic vacuolation was not observed; details: Concentration: 1.0 mmol/L, Treatment time: 24 hours
Method: (§2) As a test compound, the compound of Example 3, 9, 11, 12 or compounds of Comparative Examples 2 to 6 were used. Canine aortic smooth muscle cells (Canine Aortic Smooth Muscle Cells, supply source: Toyobo Co., Ltd.) or human aortic smooth muscle cells of (T/G HA-VSMG, supply source: ATCC) were treated with a test compound (1.0 or 1.2 mmol/L in concentration) for 24 hours or 2 weeks. The cells were stained with HE, immunohistochemically for LAMP-2 or toluidine blue, and thereafter the presence or absence of cytoplasmic vacuolation was determined by using an optical microscope.

[4] = tested on: human aortic smooth muscle cells (T/G HA-VSMG); test: Inducibility of cytoplasmic vacuolation in human aortic smooth muscle cells; type: cell-based; details: Concentration: 1.0 mmol/L, Treatment time: 24 hours, sulfate monohydrate
Method: as §2

SMILES: CN(C)C1CCN(C(=O)CCc2nccn2C)CC1 [Comparative Example 2, 1-(4-(dimethylamino)piperidin-1-yl)-3-(1-methyl-1H-imidazol-2-yl)propan-1-one sulfate monohydrate]
- findings in examination items ([1]; 250 mg/kg/day): abnormality was not observed
- findings in examination items ([1]; 500 mg/kg/day): vacuolation was observed in e.g., the media of blood vessels of submandibular gland
- no observed adverse effect level ([1]; oral, 2 weeks): 250 mg/kg/day
- bioavailability ([2]; 1 mg/kg oral vs 1 mg/kg intravenous, read-out: BA (bioavailability)): 42.6%
- clearance ([2]; intravenous administration 1 mg/kg, single, read-out: CLtot (total body clearance) (converted)): 8.35 mL/min/kg
- AUC(0-inf) ([2]; oral administration 1 mg/kg, single): 849 ng·h/mL
- Cmax ([2]; oral administration 1 mg/kg, single, read-out: Cmax (maximum plasma concentration)): 146 ng/mL
- half-life ([2]; oral administration 1 mg/kg, single, read-out: t1/2 (elimination half-life in the plasma) (converted)): 6.56 h
- Inducibility of cytoplasmic vacuolation [3]: Present
- Inducibility of cytoplasmic vacuolation [4]: has the inducibility of cytoplasmic vacuolation; also recorded: Present
